Assay results from patent US20060058392A1, “Use of a rhein in a therapeutic treatment requiring a rise in the rate of heme oxygenase” (priority 2002, published 2006).

Key:
[1] = system: patients presenting with osteoarthritis; details: cited from earlier work; for antalgic and anti-inflammatory symptomatic activity: acute phase of osteoarthritis, Nguyen et al. 1994
[2] = system: heme oxygenase-1 (HO-1); assay: Western blot of HO-1 expression in mice macrophages; assay type: cell-based; details: 10^−5 M, analysed at 15, 30, 60 min (diacerein, FIG. 7b) or 0-120 min and 18 h (rhein, FIG. 7c)
Protocol: FIGS. 7b and 7c are also <<Western blots >> of cells (model: mice macrophages) cultivated with and without diacerein (FIG. 7b: columns “Dε” and “Cε” respectively) or rhein (FIG. 7c) at a concentration of 10^−5 M, and later analysed at 15, 30 and 60 minutes (FIG. 7b) and at 0, 15, 30, 60, 120 minutes as well as 18 hours (FIG. 7c). The identity of the protein of interest, HO-1, was confirmed as regards its molecular mass (first column on the left in the Figures).

[3] = system: TO mice implanted with rat tissue; assay: Induced granuloma and tissue degradation of rat tissue implanted subcutaneously in mice; assay type: in vivo, mouse; details: for integrity of the implanted/grafted tissue / tissular reaction (granuloma, inflammatory cells, exudate) caused by the transplant of rat tissue to the mouse: overall statement
Protocol: The effect of diacerein, rhein and their salts or esters on the intensity of the tissular reaction and the destruction and rejection phenomena was assessed following a tissue implantation, using the model of induced granuloma and tissue degradation of rat tissue in mice (Bottomley K M and al., Osteoarthritis and Cartilage (1998) 6: 19-23.).
The method comprises the following steps: • The isolated tissue (Wistar rat, male) are placed in sterile cotton and implanted subcutaneously in TO mice; • the subcutaneous implants are kept for a period of 2 weeks; • daily treatment of the animals with diacerein, rhein, their salts or esters, as well as with the controls and comparatives, at the optimum doses indicated; • collection of the implanted tissue and of the reactive granuloma; • measurement of the degree of tissular inflammatory response (assessment of the dimensions of the granuloma, of the number of inflammatory cells in the exudate and of the volume of the exudate), and of the rejection (assessment of the degradation of the implanted tissue).

[4] = system: human chondrocytes; assay: Human chondrocyte culture treated with erythrocyte lysate (cellular viability, apoptosis); assay type: cell-based; details: lysate of 3×10^6 erythrocytes, 100 μM
Protocol: The whole cellular culture was measured by its cellular viability (live cells compared to the control), the presence of apoptosis (nuclear fragmentation; in number and percentage compared to the control), and the incorporation of radioactive sulphate (^35SO4; in coups per minutes, CPM).
As was already observed with the femoral head cartilage, the erythrocytes, erythrocyte lysate and haemoglobin also cause cellular destruction in this model. However, stress-induced HSPs prevent this cellular destruction and preserve the cells, as shown on FIG. 6 which counts the live cells (model: human chondrocytes under thermal stress (1 h at 43° C.) and treated with erythrocyte lysate (3×10^6); sem=standard error).

[5] = cited from earlier work
[6] = system: heme oxygenase-1 (HO-1); assay: Western blot of HO-1 expression in rat femoral head cartilage culture; assay type: cell-based; details: diacerein 10 μM and 100 μM, compared to control and reference solution, FIG. 7a

SMILES	antalgic and anti-inflammatory symptomatic activity [1]	expression of HO-1 [2]	integrity of the implanted/grafted tissue [3]	tissular reaction (granuloma, inflammatory cells, exudate) caused by the transplant of rat tissue to the mouse [3]	apoptosis caused by the erythrocyte lysate ([4]; FIG. 9)	solubility in alcohols [5]	solubility in water [5]	progression of osteoarthritis ([1]; patients with osteoarthritis)	safety of use ([1]; patients with osteoarthritis)	expression of HO-1 [6]	tissular reaction (formation of the reactive granuloma) ([3]; 5, 15 and 50 mg/kg per oral route, daily, 2 weeks, p<0.01 vs control, FIG. 10)	integrity of the grafted tissue: content in collagen ([3]; 5, 15 and 50 mg/kg per oral route, p<0.05 / p<0.01 vs control, FIG. 12 left)	integrity of the grafted tissue: content in glycosamino-glycan (GAG) ([3]; 5, 15 and 50 mg/kg per oral route, p<0.05 / p<0.01 vs control, FIG. 12 right)	tissular reaction: number of inflammatory cells ([3]; 5, 15 and 50 mg/kg per oral route, p<0.05 vs control, FIG. 11 left)	tissular reaction: volume of the exudate ([3]; 5, 15 and 50 mg/kg per oral route, p<0.05 vs control, FIG. 11 right)	cellular destruction caused by the erythrocyte lysate (live cells) ([4]; FIG. 8)
O=C(O)c1cc(O)c2c(c1)C(=O)c1cccc(O)c1C2=O [rhein]	moderate	time-dependant increase	preserve the integrity of the implanted tissue	reduce the tissular reaction	prevents the apoptosis	very slightly soluble	very slightly soluble	–	–	–	–	–	–	–	–	–
CC(=O)Oc1cccc2c1C(=O)c1c(OC(C)=O)cc(C(=O)O)cc1C2=O [diacerein]	moderate	time-dependant increase	preserve the integrity of the implanted tissue	reduce the tissular reaction	–	very slightly soluble	very slightly soluble	slows down the progression of osteoarthritis	good safety of use	dose-dependent increase	dose-dependent reduction	preserves the integrity of the grafted tissue	preserves the integrity of the grafted tissue	reduced in a dose-dependent manner	reduced in a dose-dependent manner	prevents the cellular destruction
